# Measurements reported in patent US4479943A, “3-Demethoxyistamycin B, the 2"-N-formimidoyl derivative thereof and pharmaceutical composition containing same” (Zaidan Hojin Biseibutsu Kagaku Kenkyu Kai, priority 1982, dated 1984).
# Columns and labels:
# [1] = tested on: Staphylococcus aureus FDA 209P; test: Antibacterial MIC, standard serial dilution; format: cell-based; conditions: nutrient agar, 37° C., 17 hours, as free base
# [2] = tested on: Staphylococcus aureus Smith; test: Antibacterial MIC, standard serial dilution; format: cell-based; conditions: nutrient agar, 37° C., 17 hours, as free base
# [3] = tested on: Staphylococcus aureus Ap01; test: Antibacterial MIC, standard serial dilution; format: cell-based; conditions: nutrient agar, 37° C., 17 hours, as free base
# [4] = tested on: Staphylococcus epidermidis 109; test: Antibacterial MIC, standard serial dilution; format: cell-based; conditions: nutrient agar, 37° C., 17 hours, as free base
# [5] = tested on: Micrococcus flavus FDA 16; test: Antibacterial MIC, standard serial dilution; format: cell-based; conditions: nutrient agar, 37° C., 17 hours, as free base
# Sarcina lutea PCI 1001 = test: Antibacterial MIC, standard serial dilution; format: cell-based; conditions: nutrient agar, 37° C., 17 hours, as free base
# Bacillus anthracis = format: cell-based; conditions: nutrient agar, 37° C., 17 hours, as free base
# [6] = tested on: Bacillus subtilis PCI 219; test: Antibacterial MIC, standard serial dilution; format: cell-based; conditions: nutrient agar, 37° C., 17 hours, as free base
# [7] = tested on: Bacillus subtilis NRRL B-558; test: Antibacterial MIC, standard serial dilution; format: cell-based; conditions: nutrient agar, 37° C., 17 hours, as free base
# [8] = tested on: Bacillus cereus ATCC 10702; test: Antibacterial MIC, standard serial dilution; format: cell-based; conditions: nutrient agar, 37° C., 17 hours, as free base
# [9] = tested on: Corynebacterium bovis 1810; test: Antibacterial MIC, standard serial dilution; format: cell-based; conditions: nutrient agar, 37° C., 17 hours, as free base
# [10] = tested on: Mycobacterium smegmatis ATCC 607; test: Antibacterial MIC, standard serial dilution; format: cell-based; conditions: nutrient agar, 37° C., 17 hours, as free base
# Escherichia coli NIHJ = test: Antibacterial MIC, standard serial dilution; format: cell-based; conditions: nutrient agar, 37° C., 17 hours, as free base
# Escherichia coli K-12 = test: Antibacterial MIC, standard serial dilution; format: cell-based; conditions: nutrient agar, 37° C., 17 hours, as free base
# Escherichia coli K-12 R5 = test: Antibacterial MIC, standard serial dilution; format: cell-based; conditions: nutrient agar, 37° C., 17 hours, as free base
# [11] = tested on: Escherichia coli K-12 R388; test: Antibacterial MIC, standard serial dilution; format: cell-based; conditions: nutrient agar, 37° C., 17 hours, as free base
# [12] = tested on: Escherichia coli K-12 J5R11-2; test: Antibacterial MIC, standard serial dilution; format: cell-based; conditions: nutrient agar, 37° C., 17 hours, as free base
# [13] = tested on: Escherichia coli K-12 ML1629; test: Antibacterial MIC, standard serial dilution; format: cell-based; conditions: nutrient agar, 37° C., 17 hours, as free base
# [14] = tested on: Escherichia coli K-12 ML1630; test: Antibacterial MIC, standard serial dilution; format: cell-based; conditions: nutrient agar, 37° C., 17 hours, as free base
# [15] = tested on: Escherichia coli K-12 ML1410; test: Antibacterial MIC, standard serial dilution; format: cell-based; conditions: nutrient agar, 37° C., 17 hours, as free base
# [16] = tested on: Escherichia coli K-12 ML1410 R81; test: Antibacterial MIC, standard serial dilution; format: cell-based; conditions: nutrient agar, 37° C., 17 hours, as free base
# [17] = tested on: Escherichia coli K-12 LA290 R55; test: Antibacterial MIC, standard serial dilution; format: cell-based; conditions: nutrient agar, 37° C., 17 hours, as free base
# [18] = tested on: Escherichia coli K-12 LA290 R56; test: Antibacterial MIC, standard serial dilution; format: cell-based; conditions: nutrient agar, 37° C., 17 hours, as free base
# [19] = tested on: Escherichia coli K-12 LA290 R64; test: Antibacterial MIC, standard serial dilution; format: cell-based; conditions: nutrient agar, 37° C., 17 hours, as free base
# Escherichia coli W677 = test: Antibacterial MIC, standard serial dilution; format: cell-based; conditions: nutrient agar, 37° C., 17 hours, as free base
# [20] = tested on: Escherichia coli JR66/W677; test: Antibacterial MIC, standard serial dilution; format: cell-based; conditions: nutrient agar, 37° C., 17 hours, as free base
# [21] = tested on: Escherichia coli K-12 C600 R135; test: Antibacterial MIC, standard serial dilution; format: cell-based; conditions: nutrient agar, 37° C., 17 hours, as free base
# Escherichia coli JR225 = test: Antibacterial MIC, standard serial dilution; format: cell-based; conditions: nutrient agar, 37° C., 17 hours, as free base
# [22] = tested on: Klebsiella pneumoniae PCI602; test: Antibacterial MIC, standard serial dilution; format: cell-based; conditions: nutrient agar, 37° C., 17 hours, as free base
# [23] = tested on: Klebsiella pneumoniae 22#3038; test: Antibacterial MIC, standard serial dilution; format: cell-based; conditions: nutrient agar, 37° C., 17 hours, as free base
# [24] = tested on: Shigella dysenteriae JS11910; test: Antibacterial MIC, standard serial dilution; format: cell-based; conditions: nutrient agar, 37° C., 17 hours, as free base
# Salmonella typhi T-63 = test: Antibacterial MIC, standard serial dilution; format: cell-based; conditions: nutrient agar, 37° C., 17 hours, as free base
# [25] = tested on: Salmonella enteritidis 1891; test: Antibacterial MIC, standard serial dilution; format: cell-based; conditions: nutrient agar, 37° C., 17 hours, as free base
# Proteus vulgaris 0X19 = test: Antibacterial MIC, standard serial dilution; format: cell-based; conditions: nutrient agar, 37° C., 17 hours, as free base
# Proteus rettgeri GN311 = test: Antibacterial MIC, standard serial dilution; format: cell-based; conditions: nutrient agar, 37° C., 17 hours, as free base
# Proteus rettgeri GN466 = test: Antibacterial MIC, standard serial dilution; format: cell-based; conditions: nutrient agar, 37° C., 17 hours, as free base
# Serratia marcescens = test: Antibacterial MIC, standard serial dilution; format: cell-based; conditions: nutrient agar, 37° C., 17 hours, as free base
# Serratia sp. SOU = test: Antibacterial MIC, standard serial dilution; format: cell-based; conditions: nutrient agar, 37° C., 17 hours, as free base
# Serratia sp. 4 = test: Antibacterial MIC, standard serial dilution; format: cell-based; conditions: nutrient agar, 37° C., 17 hours, as free base
# Providencia sp. Pv16 = test: Antibacterial MIC, standard serial dilution; format: cell-based; conditions: nutrient agar, 37° C., 17 hours, as free base
# Providencia sp. 2991 = test: Antibacterial MIC, standard serial dilution; format: cell-based; conditions: nutrient agar, 37° C., 17 hours, as free base
# [26] = tested on: Pseudomonas aeruginosa A3; test: Antibacterial MIC, standard serial dilution; format: cell-based; conditions: nutrient agar, 37° C., 17 hours, as free base
# [27] = tested on: Pseudomonas aeruginosa No. 12; test: Antibacterial MIC, standard serial dilution; format: cell-based; conditions: nutrient agar, 37° C., 17 hours, as free base
# [28] = tested on: Pseudomonas aeruginosa H9; test: Antibacterial MIC, standard serial dilution; format: cell-based; conditions: nutrient agar, 37° C., 17 hours, as free base
# [29] = tested on: Pseudomonas aeruginosa H11; test: Antibacterial MIC, standard serial dilution; format: cell-based; conditions: nutrient agar, 37° C., 17 hours, as free base
# [30] = tested on: Pseudomonas aeruginosa TI-13; test: Antibacterial MIC, standard serial dilution; format: cell-based; conditions: nutrient agar, 37° C., 17 hours, as free base
# [31] = tested on: Pseudomonas aeruginosa GN315; test: Antibacterial MIC, standard serial dilution; format: cell-based; conditions: nutrient agar, 37° C., 17 hours, as free base
# [32] = tested on: Pseudomonas aeruginosa 99; test: Antibacterial MIC, standard serial dilution; format: cell-based; conditions: nutrient agar, 37° C., 17 hours, as free base
# [33] = tested on: Pseudomonas aeruginosa B-13; test: Antibacterial MIC, standard serial dilution; format: cell-based; conditions: nutrient agar, 37° C., 17 hours, as free base
# [34] = tested on: Pseudomonas aeruginosa 21-75; test: Antibacterial MIC, standard serial dilution; format: cell-based; conditions: nutrient agar, 37° C., 17 hours, as free base
# [35] = tested on: Pseudomonas aeruginosa PST1; test: Antibacterial MIC, standard serial dilution; format: cell-based; conditions: nutrient agar, 37° C., 17 hours, as free base
# [36] = tested on: Pseudomonas aeruginosa ROS 134/PU21; test: Antibacterial MIC, standard serial dilution; format: cell-based; conditions: nutrient agar, 37° C., 17 hours, as free base
# [37] = tested on: Pseudomonas aeruginosa K-Ps 102; test: Antibacterial MIC, standard serial dilution; format: cell-based; conditions: nutrient agar, 37° C., 17 hours, as free base
# [38] = tested on: Pseudomonas maltophilia GN 907; test: Antibacterial MIC, standard serial dilution; format: cell-based; conditions: nutrient agar, 37° C., 17 hours, as free base
# mice = test: Acute toxicity, intravenous administration in mice; format: in vivo
smiles,measurement,setting,value
"CNCC1CCC(N)C(OC2C(N)CCC(N(C)C(=O)CNC=N)C2O)O1.O.O.O.O.O=S(=O)(O)O.O=S(=O)(O)O (centres unmarked) [DBF, 3-demethoxy-2""-N-formimidoylistamycin B]",MIC,[1],0.39 µg/mL
same,MIC,[2],< 0.20 µg/mL
same,MIC,[3],0.39 µg/mL
same,MIC,[4],0.20 µg/mL
same,MIC,[5],0.39 µg/mL
same,MIC,Sarcina lutea PCI 1001,0.39 µg/mL
same,MIC,Bacillus anthracis,0.39 µg/mL
same,MIC,[6],0.20 µg/mL
same,MIC,[7],< 0.20 µg/mL
same,MIC,[8],1.56 µg/mL
same,MIC,[9],< 0.20 µg/mL
same,MIC,[10],0.39 µg/mL
same,MIC,Escherichia coli NIHJ,0.20 µg/mL
same,MIC,Escherichia coli K-12,0.39 µg/mL
same,MIC,Escherichia coli K-12 R5,0.78 µg/mL
same,MIC,[11],0.39 µg/mL
same,MIC,[12],0.78 µg/mL
same,MIC,[13],0.39 µg/mL
same,MIC,[14],1.56 µg/mL
same,MIC,[15],1.56 µg/mL
same,MIC,[16],0.39 µg/mL
same,MIC,[17],0.78 µg/mL
same,MIC,[18],0.39 µg/mL
same,MIC,[19],0.78 µg/mL
same,MIC,Escherichia coli W677,0.39 µg/mL
same,MIC,[20],0.39 µg/mL
same,MIC,[21],6.25 µg/mL
same,MIC,Escherichia coli JR225,0.39 µg/mL
same,MIC,[22],0.78 µg/mL
same,MIC,[23],1.56 µg/mL
same,MIC,[24],1.56 µg/mL
same,MIC,Salmonella typhi T-63,0.39 µg/mL
same,MIC,[25],1.56 µg/mL
same,MIC,Proteus vulgaris 0X19,< 0.20 µg/mL
same,MIC,Proteus rettgeri GN311,0.39 µg/mL
same,MIC,Proteus rettgeri GN466,< 0.20 µg/mL
same,MIC,Serratia marcescens,0.78 µg/mL
same,MIC,Serratia sp. SOU,12.5 µg/mL
same,MIC,Serratia sp. 4,12.5 µg/mL
same,MIC,Providencia sp. Pv16,0.78 µg/mL
same,MIC,Providencia sp. 2991,1.56 µg/mL
same,MIC,[26],0.39 µg/mL
same,MIC,[27],25 µg/mL
same,MIC,[28],25 µg/mL
same,MIC,[29],50 µg/mL
same,MIC,[30],12.5 µg/mL
same,MIC,[31],50 µg/mL
same,MIC,[32],> 100 µg/mL
same,MIC,[33],> 100 µg/mL
same,MIC,[34],50 µg/mL
same,MIC,[35],25 µg/mL
same,MIC,[36],100 µg/mL
same,MIC,[37],25 µg/mL
same,MIC,[38],> 100 µg/mL
same,acute toxicity,"mice; mice, intravenous, in words",low toxicity
same,tolerated dose (all treated mice),"mice; mouse, in vivo, iv, 336 h",100 mg/kg
